Measured values published in the supplement of paper PMC10307832.

Columns and labels:
Experiment in all cases: relative viability (nuclei count vs DMSO), 5 days (fraction); higher = more cells survive
Shikonin = compound: CC(C)=CC[C@@H](O)C1=CC(=O)c2c(O)ccc(O)c2C1=O [Shikonin]
Procedure, shortened: (§1)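 On vehicle-anchored 1536-well plates, lung cancer cell lines held overnight at 37 °C were pinned with five library-drug doses (not always all listed) spaced by √10. With no medium change over 5 days, they were then fixed, permeabilised and Hoechst-stained in one step and imaged at 4×. MetaXpress counted nuclei, and viability is the median across plates of treated-well over vehicle-well nuclei. Acceptance needed control CV below 25% and at least one doubling.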

[1] = compound: CC(C)N(CCCNC(=O)Nc1ccc(C(C)(C)C)cc1)C[C@H]1O[C@@H](n2ccc3c(N)ncnc32)[C@H](O)[C@@H]1O
Procedure, shortened: as §1

Shikonin + Navitoclax = compound: CC(C)=CC[C@@H](O)C1=CC(=O)c2c(O)ccc(O)c2C1=O [Shikonin] + CC1(C)CCC(c2ccc(Cl)cc2)=C(CN2CCN(c3ccc(C(=O)NS(=O)(=O)c4ccc(N[C@H](CCN5CCOCC5)CSc5ccccc5)c(S(=O)(=O)C(F)(F)F)c4)cc3)CC2)C1 [Navitoclax] (partner 0.5 µM)
Procedure, shortened: (§2)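 The day after seeding in 1536-well plates, lung cancer cell lines were treated by pin tool with a single drug, or with a fixed anchor-drug dose together with five library-drug doses (not always all listed) in √10 steps. After 5 days, a combined fix-and-stain solution (final 0.05% Triton X-100, 1% formaldehyde, 1 ug/ml Hoechst) was added. Nuclei counted on 4× images gave relative viability as treated counts over vehicle counts, reported as the median of duplicate plates.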

Shikonin + Foretinib = compound: CC(C)=CC[C@@H](O)C1=CC(=O)c2c(O)ccc(O)c2C1=O [Shikonin] + COc1cc2c(Oc3ccc(NC(=O)C4(C(=O)Nc5ccc(F)cc5)CC4)cc3F)ccnc2cc1OCCCN1CCOCC1 [Foretinib] (partner 0.25 µM)
Procedure, shortened: as §2

Row | Cell Line | relative viability (Shikonin; 0.01 µM) | relative viability (Shikonin; 0.1 µM) | relative viability (Shikonin; 0.3162 µM) | relative viability (Shikonin; 1 µM) | relative viability ([1]; 0.08 µM) | relative viability ([1]; 0.253 µM) | relative viability ([1]; 0.8 µM) | relative viability ([1]; 2.53 µM) | relative viability ([1]; 8 µM) | relative viability (Shikonin + Navitoclax; first compound 0.01 µM) | relative viability (Shikonin + Navitoclax; first compound 0.1 µM) | relative viability (Shikonin + Navitoclax; first compound 0.3162 µM) | relative viability (Shikonin + Navitoclax; first compound 1 µM) | relative viability (Shikonin + Foretinib; first compound 0.01 µM) | relative viability (Shikonin + Foretinib; first compound 0.1 µM) | relative viability (Shikonin + Foretinib; first compound 0.3162 µM) | relative viability (Shikonin + Foretinib; first compound 1 µM)
1 | ChaGo-K-1 | 1.02 | 0.971 | 1.05 | 1.02 | 0.97 | 0.889 | 0.918 | 0.96 | 1.06 | 0.882 | 1.4 | 1.01 | 1.44 | 0.97 | 1.06 | 1.05 | 0.943
2 | COR-L 105 | 0.979 | 0.973 | 0.911 | 0.855 | 0.887 | 0.943 | 0.921 | 0.943 | 0.923 | 0.9 | 0.786 | 0.747 | 0.768 | 1.44 | 1.31 | 1.34 | 1.33
3 | NCI-H1975 | 0.956 | 0.946 | 0.955 | 1.05 | 0.844 | 0.837 | 0.594 | 0.843 | 0.743 | 1.16 | 1.37 | 1.33 | 0.91 | 1 | 0.921 | 0.947 | 0.973
4 | Calu-6 | 1.05 | 1.11 | 1.04 | 0.93 | 1 | 1.03 | 0.996 | 1.04 | 0.966 | 1.1 | 1.11 | 0.981 | 0.448 | 0.962 | 0.904 | 1.02 | 0.885
5 | NCI-H2009 | 0.996 | 1.11 | 0.981 | 0.727 | 1.01 | 0.969 | 0.961 | 0.985 | 0.934 | 1.23 | 1.16 | 1.19 | 1.05 | 1.24 | 1.37 | 1.31 | 1.06
6 | SW 1573 | 1.1 | 0.967 | 0.894 | 0.721 | 0.968 | 0.966 | 1.07 | 1.11 | 0.984 | 1.2 | 1.13 | 1.01 | 0.869 | 0.929 | 0.894 | 1.13 | 0.765
7 | NCI-H2347 | 0.971 | 1.07 | 1.06 | 0.984 | 1.02 | 0.963 | 0.935 | 1.06 | 0.955 | 0.775 | 0.73 | 0.781 | 0.798 | 1.15 | 1.27 | 0.835 | 0.953
8 | HCC-366 | 0.975 | 1.15 | 1.04 | 1.03 | 0.965 | 0.988 | 0.927 | 0.984 | 0.892 | 1.08 | 1.06 | 1.09 | 1.08 | 0.928 | 1.2 | 0.979 | 0.939
9 | EMC-BAC-2 | 0.97 | 0.997 | 1.11 | 1.13 | 0.943 | 0.928 | 1.03 | 0.905 | 0.889 | 1.13 | 1.1 | 1.28 | 1.22 | 0.993 | 1.05 | 1.16 | 0.972
10 | NCI-H3122 | 1.03 | 1.07 | 1.07 | 1.04 | 0.978 | 0.98 | 0.965 | 0.954 | 0.993 | 1.03 | 1.09 | 1.05 | 1.09 | 0.959 | 0.997 | 0.947 | 1.01
11 | NCI-H1944 | 0.993 | 1.06 | 1.12 | 0.986 | 0.979 | 0.878 | 0.762 | 0.976 | 0.936 | 0.988 | 1.1 | 1.08 | 1.14 | 0.94 | 0.954 | 0.989 | 0.94
12 | EPLC-272H | 0.906 | 0.974 | 1.06 | 1.09 | 0.907 | 0.883 | 0.968 | 0.936 | 0.859 | 1.17 | 1.07 | 1.27 | 1.14 | 0.715 | 0.601 | 0.783 | 0.726
13 | EBC-1 | 1.06 | 0.997 | 1.05 | 0.962 | 0.926 | 0.96 | 0.874 | 0.941 | 0.808 | 0.366 | 0.392 | 0.352 | 0.254 | 0.0907 | 0.107 | 0.11 | 0.112
14 | NCI-H1915 | 1.07 | 1.17 | 1.05 | 1.06 | 0.957 | 1.01 | 0.848 | 0.947 | 0.942 | 0.719 | 0.793 | 0.795 | 0.847 | 1.13 | 1.12 | 1.15 | 1.2
15 | NCI-H441 | 1.24 | 0.942 | 1.18 | 0.975 | 1.01 | 1.06 |  | 1.1 | 0.981 | 0.615 | 0.76 | 0.742 | 0.396 | 0.941 | 1.17 | 0.849 | 1.04
16 | NCI-H1299 | 1.05 | 1.06 | 1.01 | 0.973 | 0.979 | 1.01 | 0.955 | 0.999 | 0.963 | 1.03 | 1.09 | 1.06 | 1.05 | 1.08 | 1.15 | 1.09 | 1.09
17 | NCI-H23 | 1.02 | 1.11 | 1 | 0.981 | 0.912 | 0.707 | 1.07 | 0.931 | 0.9 | 0.821 | 0.748 | 0.935 | 0.781 | 1.09 | 1.07 | 1.03 | 0.983
18 | IA-LM | 1.13 | 0.875 | 1.05 | 0.859 | 1.02 | 0.879 | 1.02 | 0.963 | 0.84 | 0.879 | 0.858 | 0.796 | 0.654 | 1.14 | 1.42 | 1.32 | 1.15
19 | SK-MES-1 | 1.04 | 1.08 | 1.1 | 0.962 | 0.996 | 0.942 | 0.99 | 1.02 | 0.939 | 1.25 | 1.19 | 1.29 | 1.29 | 1.01 | 1.2 | 0.965 | 0.939
